Data from patent US20170281611A1, “QUINOLINES AND THEIR USE FOR TREATING ENDOPLASMIC RETICULUM STRESS-CAUSED DISEASES” (EIGER BIOPHARMACEUTICALS, INC., priority 2014, published 2017).
Like-named read-outs stand apart in the source and are kept apart here. One block for each molecule: values may come before it.

What was measured:
SERCA, cardiac SR = target: T1, SERCA, cardiac SR; assay: Activation of SERCA, NADH-linked enzyme-coupled ATPase assay, cardiac SR; format: biochemical; conditions: read-out: CSR EC50
T1 construct: 2 mg or 7 mg of SR vesicles (optimized for skeletal or cardiac SR, respectively); from tissue; host or cells: cardiac sarcoplasmic reticulum vesicles
T1 sequence (P16615 1-997 isoform P16615-2): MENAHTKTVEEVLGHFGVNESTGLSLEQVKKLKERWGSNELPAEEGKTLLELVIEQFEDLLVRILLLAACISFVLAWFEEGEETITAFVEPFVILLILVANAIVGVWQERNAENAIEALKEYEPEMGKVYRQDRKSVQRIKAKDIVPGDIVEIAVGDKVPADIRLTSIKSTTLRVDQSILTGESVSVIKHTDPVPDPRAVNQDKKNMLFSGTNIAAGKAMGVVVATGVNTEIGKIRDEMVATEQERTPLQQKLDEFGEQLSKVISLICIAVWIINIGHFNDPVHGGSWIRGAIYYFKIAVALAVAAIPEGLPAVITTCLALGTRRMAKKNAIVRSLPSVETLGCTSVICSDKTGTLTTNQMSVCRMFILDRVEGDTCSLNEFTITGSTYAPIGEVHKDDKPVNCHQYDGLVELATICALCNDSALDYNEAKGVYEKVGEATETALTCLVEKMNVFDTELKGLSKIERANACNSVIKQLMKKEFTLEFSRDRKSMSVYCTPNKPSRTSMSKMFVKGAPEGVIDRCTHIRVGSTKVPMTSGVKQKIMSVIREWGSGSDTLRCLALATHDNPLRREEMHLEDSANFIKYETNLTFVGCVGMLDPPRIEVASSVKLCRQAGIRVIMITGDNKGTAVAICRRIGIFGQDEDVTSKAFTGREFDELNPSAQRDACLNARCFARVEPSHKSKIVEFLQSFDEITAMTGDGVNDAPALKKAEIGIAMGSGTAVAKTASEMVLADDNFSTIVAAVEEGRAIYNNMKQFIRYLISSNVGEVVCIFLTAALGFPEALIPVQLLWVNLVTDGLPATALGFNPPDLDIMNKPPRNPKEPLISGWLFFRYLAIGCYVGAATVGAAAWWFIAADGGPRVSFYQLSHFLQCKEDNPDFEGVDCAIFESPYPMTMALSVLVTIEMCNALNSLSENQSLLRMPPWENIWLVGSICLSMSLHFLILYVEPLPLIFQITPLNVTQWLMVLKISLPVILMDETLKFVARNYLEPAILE
Description: Test compounds were characterized over a range of concentrations using an NADH-linked, enzyme-coupled ATPase assay. Each well contained 2 mg or 7 mg of SR vesicles (optimized for skeletal or cardiac SR, respectively), 50 mM MOPS (pH 7.0), 100 mM KCl, 5 mM MgCl2, 1 mM EGTA, 0.2 mM NADH, 1 mM phosphoenol pyruvate, 5 IU pyruvate kinase, 5 IU lactate dehydrogenase, and 3.5 mg/mL A23187 (a calcium ionophore), and CaCl2 was added to set free [Ca2+] to the specific values. The assay was started upon addition of ATP at a final concentration of 5 mM, and read in a SpectraMax Plus microplate spectrophotometer and the ATPase activities were fitted using the Hill function.

[1] = Pharmacokinetics in Beagle dogs (Table 5); format: in vivo; conditions: dog, PO (10 mg/kg) vs IV (1 mg/kg), based on AUC0-t
Description: For pharmacokinetic evaluation, 3 male Beagle dogs were intravenously (IV) dosed (1 mg/kg body weight) and 3 male Beagle dogs were orally (PO) dosed (10 mg/kg body weight) with a test compound. Blood (approximately 1.0 mL) was collected via femoral vein into tubes containing K3EDTA anticoagulant at 0, 0.017, 0.083, 0.5, 1, 2, 4, 6, 8, and 24 hours post-dosing. Plasma samples were analyzed by LC-MS/MS. The analytical results were confirmed using quality control samples for intra-assay variation. The accuracy of >66% of the quality control samples was between 80-120% of the known value(s). A standard set of pharmacokinetic parameters were generated from concentration data including Area Under the Curve (AUC0-t and AUC0-inf), elimination half-lives, clearances, volume of distribution and bioavailabilities (based on AUC0-t), maximum plasma concentration (C0; Cmax), and time to reach maximum plasma concentration (Tmax).

SERCA = assay: Ca-ATPase assay, microsomal preparations from HEK 293 cells; format: biochemical, human
Description: A Ca-ATPase assay was performed using microsomal preparations from HEK 293 cells at a series of calcium concentrations corresponding to the physiological range, relative to controls. The ATP hydrolysis rate was measured over a range of calcium concentrations in the presence of test compounds using an NADH-linked, enzyme-coupled ATPase assay adapted for 96-well microplates, with Vmax determined by fitting the ATPase calcium-dependence to the Hill function. […] CaCl2 was added to set free [Ca^2+] to the specific values.

[2] = system: 6-OHDA lesioned Wistar rats; assay: Rat unilateral 6-OHDA model of Parkinson's disease, stepping test; format: in vivo; conditions: D11, 10 mg/kg IP once daily for 15 days, t test
Description: Fifty adult male Wistar rats were used. The rats from different groups (G1 to G5) were randomized. At the beginning of the study, the rats were about 5 weeks old and naive to previous administration of any drug.
A stereotaxic injection of 6-OHDA (G2 to G5) or saline (G1: sham group) was performed to induce a unilateral dopaminergic lesion on day 0 (D0). Surgery was performed on D0 under ketamine (50 mg/kg) and xylazine (10 mg/kg). The rats of G2 to G5 received a unilateral injection of 6-OHDA (6 μL) in the left substantia nigra pars compacta. Jouve et al., J. Neurosci. 2010, 30, 9919-9928. The rats of the G1 sham group were injected with saline. During surgery, local analgesia was achieved using subcutaneous injections of lidocaine. At the end of surgery, the rats were treated with buprenorphine (0.05 mg/kg, S.C.).
The stepping test was performed after IT test, both before the 6-OHDA lesion induction on D0 and on D11. Around D−6, the stepping test was performed eight consecutive times for the right paw of each animal to obtain baseline values. On D11, the stepping test was performed one hour after the rats were dosed. Each rat was hold by an experimenter and only one of the two forelimbs was left free to move above a plane surface and the other was held with the paw touching the table. The rats were then to be moved slowly forward by the experimenter. The number of adjusting steps was countered for the right paw. Olsson et al., J. Neurosci. 1995, 15, 3863-3875.
L-DOPA and benserazide (a peripheric DOPA decarboxylase inhibitor) were prepared together as a single solution containing 0.9% NaCl and 0.1% ascorbic acid.
All the dosings were given via the IP route, once daily, Sunday excluded.

[3] = Pharmacokinetics in Sprague Dawley rats (Table 4); format: in vivo; conditions: rat; for AUC(0-inf) / AUC(0-t) / Cmax / Tmax / clearance / half-life / MRT inf / Vd: Sprague Dawley, in vivo; for MRT inf: read-out: MRT0-∞; for Vd: read-out: Vz; for F: PO (10 mg/kg) vs IV (2 mg/kg)
Text: Compound D1 was formulated in 0.3% DMA/1% SOLUTOL®/98.7% saline. Compound D6 was formulated in 0.5% DMA/1% SOLUTOL®/94.5% 0.01N HCl in saline/4% NaOH (pH 4-5).

CSM14.1 cells = assay: ER stress cell survival assay (thapsigargin, […]-GLO); format: cell-based; conditions: dose-response
Description: CSM14.1 cells were maintained in Complete Medium at 32° C.; wherein the Complete Medium contained Dulbecco's modified eagle medium (DMEM) with 10% fetal bovine serum (FSB), 1% L-glutamine, 100 IU/mL penicillin, and 100 μg/mL streptomycin. The cells were recovered from cultures by trypsinization and then seeded in 384 well plates (Greiner #781098) at a concentration of 1,000 cells/well in 20 μL of DMEM Assay Medium, wherein the DMEM Assay Medium contained 2% FBS, 100 IU/mL penicillin, and 100 μg/mL streptomycin. Seeding was performed using a MultiDrop Combi reagent broadcaster. The plates were incubated overnight at 32° C.
A test compound was prepared by 2-fold serial dilution in 100% DMSO using a BIOMEK® 2000 liquid handler (Beckman Coulter). A dose-response curve containing 10 concentrations of the test compound was obtained. Using a BIOMEK® FX liquid handler (Beckman Coulter), 2.5 μL of the test compound was transferred from the 100% DMSO serial dilution plate to an intermediate plate containing 47.5 μL of DMEM Assay Medium containing 2% FBS, 100 IU/mL penicillin, and 100 μg/mL streptomycin and mixed. To reduce or eliminate the interference from the compound's precipitation, 6 μL of the diluted compound was immediately transferred to the assay plate to achieve a high compound concentration of 100 μM in 99% DMEM Assay Medium and 1% DMSO. After the assay plates were incubated for 2 hrs, 4 μL of 112.5 μM thapsigargin (TG) (DMSO stock diluted into Assay TC Medium) was dispensed into each testing well with a MultiDrop Combi reagent broadcaster for a final concentration of about 15 μM TG. The tissue culture media (4 μL) containing vehicle only was transferred manually to each control cell using a 16 channel electronic pipette. […] High luminescence indicates cell survival.
Alternatively, a test compound was tested at a single compound concentration (e.g., 2 μM) to determine the effect of the compound on cell survival in comparison with vehicle.

EC50 (SERCA, cardiac SR): < 20 µM
SMILES: Cc1ccc2cccc(NC(=O)c3ccc(C(C)(C)C)cc3)c2n1 [Compound A4, 4-(tert-Butyl)-N-(2-methylquinolin-8-yl)benzamide]

EC50 (SERCA, cardiac SR): < 20 µM
SMILES: O=C(Nc1cccc2cccnc12)c1cccc(F)c1 [Compound A7, 3-Fluoro-N-(quinolin-8-yl)benzamide]

EC50 (SERCA, cardiac SR): < 20 µM
SMILES: CC(C)Oc1ccc(C(=O)Nc2cccc3cccnc23)cc1 [Compound A11, 4-Isopropoxy-N-(quinolin-8-yl)benzamide]

F [1]: 1.4%
SMILES: Cc1ccc2cccc(NC(=O)c3cccc(OC(C)C)c3)c2n1 [Compound A13, 3-Isopropoxy-N-(2-methylquinolin-8-yl)benzamide]
Vmax of a SERCA (SERCA): significantly increased

SMILES: Cc1ccc2cccc(NC(=O)c3ccc(Br)s3)c2n1 [Compound B1, 5-Bromo-N-(2-methylquinolin-8-yl)thiophene-2-carboxamide]
number of adjusting steps [2]: statistically significant increase

AUC(0-inf) ([3]; IV (2 mg/kg)): 5900 ± 454 ng·h/mL
AUC(0-t) ([3]; IV (2 mg/kg)): 5880 ± 453 ng·h/mL
Cmax ([3]; IV (2 mg/kg)): 18.6 ± 1.33 µM
Tmax ([3]; IV (2 mg/kg)): 0.02 h
clearance ([3]; IV (2 mg/kg)): 5.67 mL/min/kg
half-life ([3]; IV (2 mg/kg)): 3.21 ± 0.39 h
MRT inf ([3]; IV (2 mg/kg)): 2.98 ± 0.17 h
Vd ([3]; IV (2 mg/kg)): 1.57 ± 0.2 L/kg
AUC(0-inf) ([3]; PO (10 mg/kg)): 162000 ± 11900 ng·h/mL
AUC(0-t) ([3]; PO (10 mg/kg)): 24600 ± 4100 ng·h/mL
Cmax ([3]; PO (10 mg/kg)): 15.3 ± 3.86 µM
Tmax ([3]; PO (10 mg/kg)): 0.58 ± 0.38 h
half-life ([3]; PO (10 mg/kg)): 2.76 ± 0.69 h
MRT inf ([3]; PO (10 mg/kg)): 3.93 ± 0.41 h
F [3]: 84%
SMILES: O=C(c1ccccc1)N1CCN(c2ccnc3cc(Cl)ccc23)CC1 [Compound D1, (4-(7-Chloroquinolin-4-yl)piperazin-1-yl)(phenyl)methanone]
EC50 (CSM14.1 cells): 20 to 100 µM

AUC(0-inf) ([3]; IV (2 mg/kg)): 1840 ± 209 ng·h/mL
AUC(0-t) ([3]; IV (2 mg/kg)): 1790 ± 187 ng·h/mL
Cmax ([3]; IV (2 mg/kg)): 7.59 ± 0.55 µM
Tmax ([3]; IV (2 mg/kg)): 0.017 h
clearance ([3]; IV (2 mg/kg)): 18.3 mL/min/kg
half-life ([3]; IV (2 mg/kg)): 1.77 ± 0.33 h
MRT inf ([3]; IV (2 mg/kg)): 1.57 ± 0.22 h
Vd ([3]; IV (2 mg/kg)): 2.76 ± 0.22 L/kg
AUC(0-inf) ([3]; PO (10 mg/kg)): 8060 ± 3220 ng·h/mL
AUC(0-t) ([3]; PO (10 mg/kg)): 7890 ± 3320 ng·h/mL
Cmax ([3]; PO (10 mg/kg)): 7.33 ± 12.5 µM
Tmax ([3]; PO (10 mg/kg)): 0.42 ± 0.14 h
half-life ([3]; PO (10 mg/kg)): 1.76 ± 0.66 h
MRT inf ([3]; PO (10 mg/kg)): 2.88 ± 1.21 h
F [3]: 88%
SMILES: O=C(c1ccccc1F)N1CCN(c2ccnc3cc(Cl)ccc23)CC1 [Compound D2, (4-(7-Chloroquinolin-4-yl)piperazin-1-yl)(2-fluorophenyl)methanone]
EC50 (CSM14.1 cells): < 20 µM
